{"source": "patent US6441028B2", "about": "“Microbicidal compositions” (Bayer Aktiengesellschaft, priority 1995, dated 2002)", "key": {"[1]": {"tested_on": "Puccinia recondita", "assay": "Activity against Puccinia recondita in wheat (residual-protective and systemic action)", "type": "in vivo", "conditions": "mixture of the labelled component I with component II; wheat; a) spray 0.02% of active ingredient, b) 0.006% based on soil volume; assessed 12 days after infection"}, "[2]": {"tested_on": "Plasmopara viticola", "assay": "Activity against Plasmopara viticola in grapevines", "conditions": "mixture of the labelled component I with component II = ofurace (II E), oxadixyl (II F), or in particular metalaxyl (II A) or R-metalaxyl (II B); grapevine seedlings; 0.02% of active ingredient; assessed 6 days after infection", "description": "Grapevine seedlings at the 4-to-5-leaf stage are sprayed to drip point with an aqueous spray mixture prepared with a wettable powder of the active ingredient mixture (0.02% of active ingredient) and, 24 hours later, infected with a sporangia suspension of the fungus. The fungus infestation is assessed 6 days after infection, during which time a relative atmospheric humidity of 95 to 100% and a temperature of 20° are maintained."}, "[3]": {"tested_on": "Phytophthora infestans", "type": "in vivo", "conditions": "mixture of the labelled component I with component II = oxadixyl (II F), ofurace (II E), or in particular metalaxyl (II A) or R-metalaxyl (II B); tomato cv. Roter Gnom; a) curative 200 ppm, b) preventive-systemic 60 ppm relative to soil volume"}, "[4]": {"tested_on": "Erysiphe graminis", "assay": "Activity against Erysiphe graminis in barley (residual-protective and systemic action)", "type": "in vivo", "conditions": "mixture of the labelled component I with component II; barley; a) spray 0.02% of active ingredient, b) 0.002% based on soil volume; assessed 12 days after infection", "experimental": "The infected plants are placed in a greenhouse at 22°. The fungus infestation is assessed 12 days after the infection. […] 48 hours later, the plants are dusted with conidia of the fungus. The infected plants are placed in a greenhouse at 22°. The fungus infestation is assessed 12 days after the infection."}, "[5]": {"tested_on": "Cercospora arachidicola", "assay": "Residual-protective action against Cercospora arachidicola in groundnuts", "type": "in vivo", "conditions": "mixture of the labelled component I with component II; groundnut plants; 0.02% of active ingredient; assessed 12 days after infection", "experimental": "The plants are incubated for 72 hours at 21° and high atmospheric humidity and subsequently placed in a greenhouse until the typical foliar lesions appear. The activity of the active ingredient is assessed 12 days after the infection on the basis of number and size of the foliar lesions."}, "[6]": {"tested_on": "Phytophthora", "conditions": "mixture of the labelled component I, in particular in combination with metalaxyl (II A), benalaxyl (II D) or R-metalaxyl (II B); potato (Bintje); a) spray 0.02% of active ingredient, b) 0.002% based on soil volume; 5 days incubation", "description": "2-3 week old potato plants (Bintje variety) are grown for 3 weeks and then sprayed with a spray mixture (0.02% of active ingredient) prepared with a wettable powder of the active ingredient. After 24 hours, the treated plants are infected with a sporangia suspension of the fungus. The fungus infestation is assessed after the infected plants have been incubated for 5 days at a relative atmospheric humidity of 90-100% and 20° C.\nA spray mixture (0.002% of active ingredient based on the soil volume) prepared with a wettable powder of the active ingredient is poured next to 2-3 week old potato plants (Bintje variety) which have been grown for 3 weeks. […] After 48 hours, the treated plants are infected with a sporangia suspension of the fungus. Fungus infestation is assessed after the infected plants have been incubated for 5 days at a relative atmospheric humidity of 90-100% and 20° C."}, "[7]": {"tested_on": "Fusarium nivale", "assay": "Activity against Fusarium nivale in rye (seed dressing, field)", "type": "in vivo", "conditions": "mixture of the labelled component I with component II, rye cv. Tetrahell seed dressing, 20 or 6 ppm of a.i. based on seed weight", "experimental": "which has been infected naturally with Fusarium nivale is dressed with the test fungicide in a roller mixer, the following concentrations being used: 20 or 6 ppm of a.i. (based on the seed weight). The infected and treated rye is sown in the open in October in plots of 3 m length and 6 seed rows, using a seed drill. 3 replications per concentration. Until the disease level is evaluated, the experimental field is subjected to the field conditions of normal crop management (preferably in a region with unbroken snow cover during the winter months). To assess the phytotoxicity, seedling emergence is scored in autumn and plant density/tillering in spring. To assess the activity of the active ingredient, the percentage of Fusarium-infected plants is evaluated early in the year, immediately after the snows have melted."}, "[8]": {"tested_on": "Septoria nodorum", "assay": "Activity against Septoria nodorum in wheat", "type": "in vivo", "conditions": "mixture of the labelled component I with component II; wheat 3-leaf stage; 60 ppm of a.i.; assessed 13 days after infection", "experimental": "13 days after the infection, the fungus infestation is assessed."}, "[9]": {"tested_on": "Botrytis cinerea", "assay": "Activity against Botrytis cinerea on apple fruits (residual-protective action)", "type": "in vivo", "conditions": "mixture of the labelled component I with component II = furalaxyl (II C), metalaxyl (II A) or R-metalaxyl (II B); damaged apples; 0.02% of active ingredient; one week incubation", "experimental": "The treated fruits are subsequently inoculated with a spore suspension of the fungus and incubated for one week at high atmospheric humidity and approximately 20° C. The fungicidal activity of the test substance is deduced from the number of the sites of damage where rotting has been observed."}}}
{"smiles": "CON=C(C(=O)OC)c1ccccc1CON=C(C)c1cccc(OC(F)(F)F)c1", "note": "[(32), methyl 2-[α-{[(α-methyl-3-trifluoromethoxybenzyl)imino]oxy}-o-tolyl]glyoxylate O-methyloxime]", "values": [{"measurement": "synergistic effect of active ingredient mixture (fungus infestation)", "setting": "[1]", "result": "good synergistic effect"}, {"measurement": "synergistic effect of active ingredient mixture (fungus infestation)", "setting": "[2]", "result": "marked synergistic effect"}, {"measurement": "synergistic effect of active ingredient mixture (number and size of foliar lesions)", "setting": "[3]", "result": "good synergistic effect"}, {"measurement": "synergistic effect of active ingredient mixture (fungus infestation)", "setting": "[4]", "result": "good synergistic effect"}, {"measurement": "activity of active ingredient mixture (number and size of foliar lesions)", "setting": "[5]", "result": "markedly increased activity"}, {"measurement": "synergistic effect of active ingredient mixture (fungus infestation)", "setting": "[6]", "result": "good synergistic effect"}, {"measurement": "synergistic effect of active ingredient mixture (percentage of Fusarium-infected plants)", "setting": "[7]", "result": "good synergistic effect"}, {"measurement": "activity of active ingredient mixture (fungus infestation)", "setting": "[8]", "result": "markedly increased activity"}, {"measurement": "activity of active ingredient mixture (number of sites of damage with rotting)", "setting": "[9]", "result": "markedly increased activity"}]}
